Test results from US11696917B2, “Agent enhancing antitumor effect using pyrazolo[3,4-d]pyrimidine compound” (TAIHO PHARMACEUTICAL CO., LTD., priority 2017, dated 2023).

molecular target: purified recombinant human HER2 protein (Homo sapiens (Human), UniProt P04626); test: Measurement of inhibitory effect on HER2-phosphorylating activity (in vitro); type: biochemical; details: ATP 6 μM, 25° C., 40 minutes
From the text: The purified recombinant human HER2 protein used in the test was purchased from Carna Biosciences, Inc.
For the inhibitory activity measurement of each compound, the synthesis example compound was first serially diluted with dimethyl sulfoxide (DMSO).

Molecule	IC50 [nM]
(R)-4-(1-(1-acryloylpyrimidin-3-yl)-4-amino-1H-pyrazolo[3,4-d]pyrimidine-3-carboxamido)-3-methylphenyl methyl(phenyl) carbamate [compound 68]	7.7
C=CC(=O)N1CCC[C@@H](n2nc(C(=O)Nc3ccc(CC(=O)N(C)C)cc3)c3c(N)ncnc32)C1 [compound 28]	46
C=CC(=O)N1CCC[C@@H](n2nc(C(=O)Nc3cc(C#N)c(CC(=O)N(C)C)cc3C)c3c(N)ncnc32)C1 [compound 24]	38
C=CC(=O)N1CC[C@@H](n2nc(C(=O)Nc3ccc(CC(=O)N(C)C)c(C)c3C)c3c(N)ncnc32)C1 [compound 59]	45
C=CC(=O)N1CCC[C@@H](n2nc(C(=O)Nc3cc(Cl)c(CC(=O)N(C)C)cc3Cl)c3c(N)ncnc32)C1 [compound 20]	13
C=CC(=O)N1CC[C@@H](n2nc(C(=O)Nc3ccc(CC(=O)N(C)C)cc3Cl)c3c(N)ncnc32)C1 [compound 54]	31
C=CC(=O)N1CC[C@@H](n2nc(C(=O)Nc3ccc(CC(=O)N(C)C)cc3Br)c3c(N)ncnc32)C1 [compound 62]	59
C=CC(=O)N1CCC[C@@H](n2nc(C(=O)Nc3ccc(CC(=O)N(C)C)cc3-c3ccco3)c3c(N)ncnc32)C1 [compound 51]	17
C=CC(=O)N1CCC[C@@H](n2nc(C(=O)Nc3ccc(CC(=O)N(C)C)c(OC)c3)c3c(N)ncnc32)C1 [compound 40]	23
C=CC(=O)N1CC[C@@H](n2nc(C(=O)Nc3ccc(CC(=O)N(C)C)c(F)c3Cl)c3c(N)ncnc32)C1 [compound 65]	20
C=CC(=O)N1CCC[C@@H](n2nc(C(=O)Nc3ccc(CC(=O)N(C)C)cc3CC)c3c(N)ncnc32)C1 [compound 49]	20
C=CC(=O)N1CCC[C@@H](n2nc(C(=O)Nc3ccc(CC(=O)N(C)C)cc3-c3ccoc3)c3c(N)ncnc32)C1 [compound 52]	13
C=CC(=O)N1CCC[C@@H](n2nc(C(=O)Nc3ccc(CC(=O)N(C)C)cc3C#N)c3c(N)ncnc32)C1 [compound 23]	20
C=CC(=O)N1CCC[C@@H](n2nc(C(=O)Nc3ccc(CC(=O)N(C)C)cc3N(C)C)c3c(N)ncnc32)C1 [compound 47]	52
C=CC(=O)N1CCC[C@@H](n2nc(C(=O)Nc3ccc(CC(=O)N(C)C)cc3C3CC3)c3c(N)ncnc32)C1 [compound 22]	48
C=CC(=O)N1CC[C@@H](n2nc(C(=O)Nc3ccc(CC(=O)N(C)C)c(Cl)c3OC)c3c(N)ncnc32)C1 [compound 55]	49
(R)-4-(1-(1-acryloylpyrimidin-3-yl)-4-amino-1H-pyrazolo[3,4-d]pyrimidine-3-carboxamido)-3-methylphenyl piperidine-1-carboxylate [compound 70]	10
C=CC(=O)N1CCC[C@@H](n2nc(C(=O)Nc3ccc(CC(=O)N(C)C)c(F)c3)c3c(N)ncnc32)C1 [compound 42]	18
C=CC(=O)N1CC[C@@H](n2nc(C(=O)Nc3cc(Cl)c(CC(=O)N(C)C)cc3C)c3c(N)ncnc32)C1 [compound 67]	72
(R)-4-(1-(1-acryloylpyrimidin-3-yl)-4-amino-1H-pyrazolo[3,4-d]pyrimidine-3-carboxamido)-3-methylphenyl pyrrolidine-1-carboxylate [compound 69]	9.2
C=CC(=O)N1CCCC(n2nc(Nc3ccc(C(=O)N(C)C)cc3)c3c(N)ncnc32)C1 (stereo not shown) [compound 21]	26
C=CC(=O)N1CCC[C@@H](n2nc(C(=O)Nc3cccc4c(CC(=O)N(C)C)ccnc34)c3c(N)ncnc32)C1 [compound 41]	18
